Tests used:
[1] = test system: STZ-induced diabetic rats; test: von Frey test in rat STZ-induced diabetes model; format: in vivo; settings: for 50% withdrawal threshold by von Frey test: mean ± SE, n=10
Experimental: The activity of the compound of the present disclosure was evaluated according to the following procedure.
(§1) Compound 9 (50 mg/mL) was diluted with water for injection to obtain a 1 mg/mL administration specimen. For the specimens to be administered at 0.1 mg/mL and 0.01 mg/mL, the specimen to be administered at 1 mg/mL was diluted stepwise with water for injection. Each administration specimen was divided into PP disposable tubes every day and stored in a storehouse (freezer: MDF-MU339H-PJ, PHC Corporation) under the condition of freezing (−30° C. to −20° C., measured value: −26.4 to −24.5° C.). Preparation was performed on the day before the start of administration.
(§2) Water for injection was added to and dissolved in Pregabalin taken out from the capsule to obtain 2 mg/mL. It was prepared before use.
(§3) • Animal species: rat (SPF) • Strain: Crl: CD (SD) • Date of animal acquisition, gender, age in weeks, number of animals acquired, and weight range after 1 day of acquisition • First and second courses: Apr. 6, 2022, male, 7 weeks old, 35 animals, 217 to 237 g • Third and fourth courses: Apr. 13, 2022, male, 7 weeks old, 35 animals, 216 to 235 g • Source: […].
Among the animals having a 50% withdrawal threshold of 8 g or more in the von Frey test measured during the preliminary breeding period, two animals from young animals with animal numbers were assigned to non-diabetes-induced animals, and the remaining animals were assigned to diabetes-induced animals.
Among the diabetes-induced animals, animals having a blood glucose level of 300 mg/dL or less were excluded from the grouping subjects, and were grouped using a computer program (IBUKI, Nihon Bioresearch Center, Inc.) so that the body weight and the average blood glucose level of each group were approximately equal. That is, the animals for the first and second courses and the third and fourth courses were grouped into one non-diabetes animal for Group 1, and 5 […] animals for Groups 2 to 6. Note that the grouping was performed so that there were 4 examples in Group 1 and 10 examples in each of Groups 2 to 6.
• Administration method: Using a syringe (Terumo Corporation) equipped with a 25 G winged injection needle (Terumo Corporation), tail vein administration was performed. Note that a 0.75 mmol/L CAB solution was administered to a non-diabetes-induced control group.
(§4) • Dose volume: calculated at 2 mL/kg based on the body weight on the day of administration. • Number of times of administration: once • Day of administration: 7 days before the day of starting administration of the test substance.
• Administration method: Using a syringe (Terumo Corporation) equipped with a 25 G winged injection needle (Terumo Corporation), tail vein administration was performed. Note that physiological saline was administered to the non-diabetes control group and the diabetes control group.
(§5) • Dose volume: calculated at 1 mL/kg based on the body weight on the day of administration. • Number of times of administration: 9 times • Interval of administration: once every 3 days (evaluation was performed on the day after administration) • Day of starting administration: day 8 of STZ administration (day of STZ administration is counted as day 1).
• Administration method: Using a polypropylene disposable syringe (Terumo Corporation) equipped with a metal oral zonde for a rat (Fuchigami kikai Ltd.), forced oral administration was performed.
• Dose volume: calculated at 10 mL/kg based on the body weight on the day of administration. • Number of times of administration: Administration was performed once on the day of evaluation of neuropathic pain, twice in total, and on the other days of administration, a vehicle for a control substance (water for injection) was orally administered. […]

[2] = Observation of general condition in rat STZ-induced diabetes model; format: in vivo; settings: number of animals, 10 per group
Experimental: as §1, §2, §3, §4, §5
• Dose volume: calculated at 10 mL/kg based on the body weight on the day of administration. • Number of times of administration: Administration was performed once on the day of evaluation of neuropathic pain, twice in total, and on the other days of administration, a vehicle for a control substance (water for injection) was orally administered.
• Observation of general condition • Observation was performed once a day.

With `CC[C@@]1(C)Oc2cc(ccc2O)C[C@H](NC)C(=O)N[C@@H](C(C)C)C(=O)N[C@@H]1C(=O)N[C@@H](CC(=O)O)C(=O)O` [Compound 9] the “50% withdrawal threshold by von Frey test” value ([1]; 0.01 mg/kg iv group, Pre: before STZ administration) was 14.6 ± 0.4 g, the “change in the 50% withdrawal threshold (von Frey test)” value ([1]; 0.01 mg/kg iv group, as compared with the non-diabetes control group (so in the source)) was “no significant change” and the “50% withdrawal threshold by von Frey test” value ([1]; 0.01 mg/kg iv once every 3 days from day 8, day 14 of STZ administration) was 5.7 ± 0.5 g. For the same compound, the “50% withdrawal threshold by von Frey test” value ([1]; 0.01 mg/kg iv once every 3 days from day 8, day 28 of STZ administration) was 3.8 ± 0.2 g, the “50% withdrawal threshold by von Frey test” value ([1]; 0.1 mg/kg iv group, Pre: before STZ administration) was 13.1 ± 0.8 g and the “change in the 50% withdrawal threshold (von Frey test)” value ([1]; 0.1 mg/kg iv group, as compared with the non-diabetes control group (so in the source)) was “no significant change”. For the same compound, the “50% withdrawal threshold by von Frey test” value ([1]; 0.1 mg/kg iv once every 3 days from day 8, day 14 of STZ administration) was 5.7 ± 0.5 g, the “50% withdrawal threshold by von Frey test” value ([1]; 0.1 mg/kg iv once every 3 days from day 8, day 28 of STZ administration) was 4.8 ± 0.4 g and the “50% withdrawal threshold by von Frey test” value ([1]; 1 mg/kg iv group, Pre: before STZ administration) was 13.5 ± 0.7 g. The “change in the 50% withdrawal threshold (von Frey test)” value ([1]; 1 mg/kg iv group, day 28 after STZ administration, as compared with the diabetes control group) was “significant increase”, the “50% withdrawal threshold by von Frey test” value ([1]; 1 mg/kg iv once every 3 days from day 8, day 14 of STZ administration) was 5.8 ± 0.5 g and the “50% withdrawal threshold by von Frey test” value ([1]; 1 mg/kg iv once every 3 days from day 8, day 28 of STZ administration) was 6.7 ± 0.7 † g. For the same compound, the “effect on diabetic peripheral neuropathic pain” value ([1]; STZ-induced diabetic rats, conclusion of the discussion) was “suppressing effect”, the general condition ([2]; 0.01 mg/kg iv, day 1 of STZ administration) was 10 and the general condition ([2]; 0.01 mg/kg iv, day 2 of STZ administration) was 10. For the same compound, the general condition ([2]; 0.01 mg/kg iv, day 3 of STZ administration) was 10, the general condition ([2]; 0.01 mg/kg iv, day 4 of STZ administration) was 10 and the general condition ([2]; 0.01 mg/kg iv, day 5 of STZ administration) was 10. It also gave a general condition ([2]; 0.01 mg/kg iv, day 6 of STZ administration) of 10, a general condition ([2]; 0.01 mg/kg iv, day 7 of STZ administration) of 10 and a general condition ([2]; 0.01 mg/kg iv, day 8 of STZ administration) of 10. For the same compound, the general condition ([2]; 0.01 mg/kg iv, day 9 of STZ administration) was 10, the general condition ([2]; 0.01 mg/kg iv, day 10 of STZ administration) was 10 and the general condition ([2]; 0.01 mg/kg iv, day 11 of STZ administration) was 10. For the same compound, the general condition ([2]; 0.01 mg/kg iv, day 12 of STZ administration) was 10, the general condition ([2]; 0.01 mg/kg iv, day 13 of STZ administration) was 10 and the general condition ([2]; 0.01 mg/kg iv, day 14 of STZ administration) was 10. The general condition ([2]; 0.01 mg/kg iv, day 15 of STZ administration) was 10, the general condition ([2]; 0.01 mg/kg iv, day 16 of STZ administration) was 10 and the general condition ([2]; 0.01 mg/kg iv, day 17 of STZ administration) was 10. It also gave a general condition ([2]; 0.01 mg/kg iv, day 18 of STZ administration) of 10, a general condition ([2]; 0.01 mg/kg iv, day 19 of STZ administration) of 10 and a general condition ([2]; 0.01 mg/kg iv, day 20 of STZ administration) of 10. For the same compound, the general condition ([2]; 0.01 mg/kg iv, day 21 of STZ administration) was 10, the general condition ([2]; 0.01 mg/kg iv, day 22 of STZ administration) was 10 and the general condition ([2]; 0.01 mg/kg iv, day 23 of STZ administration) was 10. It also gave a general condition ([2]; 0.01 mg/kg iv, day 24 of STZ administration) of 10, a general condition ([2]; 0.01 mg/kg iv, day 25 of STZ administration) of 10 and a general condition ([2]; 0.01 mg/kg iv, day 26 of STZ administration) of 10. For the same compound, the general condition ([2]; 0.01 mg/kg iv, day 27 of STZ administration) was 10, the general condition ([2]; 0.01 mg/kg iv, day 28 of STZ administration) was 10 and the general condition ([2]; 0.01 mg/kg iv, day 29 of STZ administration) was 10. The general condition ([2]; 0.01 mg/kg iv, day 30 of STZ administration) was 10, the general condition ([2]; 0.01 mg/kg iv, day 31 of STZ administration) was 10 and the general condition ([2]; 0.01 mg/kg iv, day 32 of STZ administration) was 10. It also gave a general condition ([2]; 0.01 mg/kg iv, day 33 of STZ administration) of 10, a general condition ([2]; 0.01 mg/kg iv, day 34 of STZ administration) of 10 and a general condition ([2]; 0.01 mg/kg iv, day 35 of STZ administration) of 10. For the same compound, the general condition ([2]; 0.1 mg/kg iv, day 1 of STZ administration) was 10, the general condition ([2]; 0.1 mg/kg iv, day 2 of STZ administration) was 10 and the general condition ([2]; 0.1 mg/kg iv, day 3 of STZ administration) was 10. The general condition ([2]; 0.1 mg/kg iv, day 4 of STZ administration) was 10, the general condition ([2]; 0.1 mg/kg iv, day 5 of STZ administration) was 10 and the general condition ([2]; 0.1 mg/kg iv, day 6 of STZ administration) was 10. It also gave a general condition ([2]; 0.1 mg/kg iv, day 7 of STZ administration) of 10 and a general condition ([2]; 0.1 mg/kg iv, day 8 of STZ administration) of 10.
